Laboratory results reported in US20120225889A1, “USE OF MACROCYCLIC LACTONE DERIVATIVES FOR THE TREATMENT OF INFLAMMATORY DISORDERS” (PIRAMAL LIFE SCIENCES LIMITED, priority 2010, published 2012).
Read-outs that look alike come from different tables or passages of the source.

Experiments:
BCL2 = assay: Gene expression profile using RTQ-PCR: BCL2; format: cell-based, human; conditions: 3 μM, ± SE, N = 3
Experimental: (§1) The effect of the compound of example 7 was measured in stimulated untreated cells from the monocytic cell line (THP-1), human monocytes and synovial cells from rheumatoid arthritis patient. The effect of the compound in the THP-1 cell line was measured in terms of gene expression and was expressed as fold changes as compared to the cell stimulated control with no drug treatment.
(§2) THP-1 cells, human monocytes and synovial cells were treated with compound of example 7 or vehicle (0.5% DMSO). Total RNA isolation using a commercial RNA extraction kit (Qiagen Corporation, Germany) The first-strand cDNA was synthesized from total RNA using first strand cDNA synthesis kit from Invitrogen Corporation (California, USA). This was followed by real time quantitative polymerase chain reaction (RTQ PCR) using gene specific primers and standard thermal program of initial denaturation at 95° C. for 5 min and cycles of 95° C. for 10 seconds, followed by 60° C. for 30 seconds (Realplex PCR machine from Eppendorf, Germany). Quantitative measurement of products made during PCR cycles was normalized against a housekeeping gene (Actin) and was used to measure the gene expression as fold changes as compared to respective control.

IL-8 = assay: Synovial tissue assay (spontaneous production): IL-8; format: cell-based; conditions: Homo sapiens, synovial tissue cells from rheumatoid arthritis patients, 16 h, read-out: IC50 of IL-8 inhibition
Description: The ability of compounds of the present invention to inhibit spontaneous production of cytokines from freshly isolated human synovial tissue cells was designed as in reference, Lancet, 29, 244-247, (1989) the disclosure of which is incorporated by reference for the teaching of the assay.
Synovial tissue was obtained from rheumatoid arthritis patients undergoing knee replacement surgery. […] Subsequently, the cells were washed 3 times with RPMI 1640 culture medium and resuspended in complete medium (RPMI 1640 culture medium supplemented with 5% FBS and 5% human serum-AB+(Sigma, USA) at a concentration of 1×10^6 cells/mL. The viability of synovial cells was determined by trypan blue dye exclusion and was uniformly ≧98%. For the experiment, 100 μL of cell suspension was added to the wells of a 96-well culture plate (Nunc, USA). Following cell plating, 100 μL of the culture medium and 1 μL of various concentrations of the test compound (test compound was dissolved in DMSO to obtain a stock solution of 20 mM. […] The IC50 values were calculated by a nonlinear regression method using the GraphPad software (Prism 3.03).

IL-2 = assay: Cytokine release assay in hPBMCs: IL-2; format: cell-based; conditions: Homo sapiens
Experimental: hPBMCs were obtained from healthy donors by centrifugation of heparinized venous blood over Ficoll/Hypaque solution (Histopaque-1077, Sigma, USA). Isolated hPBMCs were suspended in RPMI 1640 culture medium supplemented with 10% FBS and seeded at a density of 50,000 cells/well in a 96-well plate (Nunc, USA). The cells were incubated at 37° C., 5% CO2 for a period of 24 h. These cells were used for the lymphocyte proliferation as well as cytokine release assay.
The plated cells were treated with different concentrations of the test compound (prepared as mM stock in DMSO and diluted with DMSO to achieve the following final concentrations in the assay: 100, 10, 1, 0.1, 0.01, 0.001, 0.0001, 0.00001 and 0.000001 μM) and incubated for 30 min. The cells were then stimulated with PHA (prepared as 1 mg/mL stock in RPMI 1640 culture medium and used at a final concentration of 5 μg/mL). FK506 was used as a standard. The plates were incubated at 37° C., 5% CO2 for 48 h. The cytokines in the supernatant collected were detected using ELISA kit (BD biosciences, USA). The cytokines evaluated in the assay were TNF-α, IL-2, IL-6, and IFN-γ.

CEBPα = assay: Gene expression profile using RTQ-PCR: CEBPα; format: cell-based, human; conditions: 3 μM
Experimental: as §1, §2

CEBPβ = assay: Gene expression profile using RTQ-PCR: CEBPβ; format: cell-based, human; conditions: 3 μM
Experimental: as §1, §2

[1] = Human monocytes, 3 h, ± SE, N = 3

`C/C=C/C(O)C(C)/C=C/C(=N\O)C(C)C(O)C(C)C1OC(=O)/C(OC)=C/C(C)=C/C(C)C(O)C(CC)C(O)C(C)C/C(C)=C/C=C/C1OC` (centres unmarked) [Compound of example 7, (3Z,5E,13E,15E)-18-((5Z,6E,10E)-3,9-Dihydroxy-5-(hydroxymino)-4,8-dimethyldodeca-6,10-dien-2-yl)-9-ethyl-8,10-dihydroxy-3,17-dimethoxy-5,7,11,13-tetramethyl oxacyclooctadeca-3,5,13,15-tetraen-2-one] was tested, and the BCL2 gene expression (BCL2; Human monocytes, 3 h) was −1.7 + 0.4 log fold change, the BCL2 gene expression (BCL2; THP-1 cells, 12 h) was −1.3 ± 0.8 log fold change and the IC50 (IL-8) was 1300 nM. For the same molecule, the IC50 (IL-2; Table 3: PHA-PMA induced hPBMC's, 48 h, read-out: IL-2 IC50) was 0.005 µM, the IC50 (IL-2; Table 4: mitogen stimulated production from hPBMC's, read-out: IL-2 (IC50 μM)) was 0.007 µM and the CEBPα gene expression (CEBPα; [1]) was −3.9 + 0.4 log fold change. For the same molecule, the CEBPα gene expression (CEBPα; Synovial cells, 12 h, N = 1) was −2.4 log fold change, the CEBPα gene expression (CEBPα; THP-1 cells, 12 h, ± SE, N = 3) was −2.1 + 2.2 log fold change and the CEBPβ gene expression (CEBPβ; [1]) was −2.2 + 0.3 log fold change. For the same molecule, the CEBPβ gene expression (CEBPβ; Synovial cells, 12 h, N = 1) was 0.4 log fold change and the CEBPβ gene expression (CEBPβ; THP-1 cells, 12 h, ± SE, N = 3) was −0.2 + 0.5 log fold change.
